Reference: US7998681B2, “Diagnosis and therapy of antibody-mediated inflammatory auto-immune disorders” (Los Angeles Biomedical Research Institute at Harbor-UCLA …, priority 2000, dated 2011)

System: RANTES
Test: RANTES ELISA of medium from treated fibroblasts, normal donors
Type: cell-based, human
Conditions: limit of detection 15 pg/ml
Text: In addition to its therapeutic aspects, the present invention also relates to a diagnostic method for detecting the presence of antibody-activated fibroblasts in the patient. Applicants believe that several auto immune diseases or disorders are associated with antibody-activated fibroblasts. Applicants have shown that increased activation of fibroblasts by auto-antibodies can be monitored by determining the levels of IL-16 and/or RANTES production in a patient. Altered levels of these chemoattractants can be detected in various biological samples in mammals, preferably humans. Levels of IL-16 and/or RANTES may be monitored in a patient, using standard techniques, as an indication of the deleterious aspects of the disease condition. Biological samples, including but not limited to serum, vitreous humor, aqueous humor, synovial fluid, and tissue, will be drawn from the patient using standard techniques. Particularly preferred are serum samples. The measurement of the IL-16 and RANTES levels may be monitored using any method possible to detect the levels of these proteins in biological samples. A preferred method of analysis is by ELISA as described in Sciaky, D. et al., J. Immunol. 164(7):3806-14, 2000. An ELISA specific for IL-16 can be used to assess the levels released by fibroblasts as described previously in Lim, K. G. et al., J. Immunol. 156(7): 2566-70, 1996. An ELISA specific for RANTES can be used according to the manufacturer's specification (BioSource Intl., Camarillo, Calif.).
The levels of IL-16 and RANTES were then assessed with specific ELISAs. The ELISA assay for IL-16 is performed essentially as discussed in Sciaky D., Brazer, W., Center, D. M., Cruikshank, W. W. and Smith, T. J.: Cultured human fibroblasts express constitutive IL-16 mRNA: Cytokine induction of active IL-16 protein synthesis through a caspase-3-dependent mechanism. J. Immunol. 164(7):3806-14, 2000). An ELISA (BioSource) for RANTES was performed according to the manufacturer's instructions. In an analysis of over a dozen strains, TAO specific IgG elicit substantial induction of IL-16 and RANTES and in no case were normal fibroblasts so affected.

IL-1β: pro-inflammatory cytokine used to activate fibroblasts
RANTES (strain 12, Orbit): 42 ± 9 pg/mL | RANTES (strain 14, Orbit): 79 ± 11 pg/mL | RANTES (strain 15, Extremity Skin): 173 ± 12 pg/mL | RANTES (strain 16, Extremity Skin): 125 ± 9 pg/mL
